Measured values taken from ChEMBL document CHEMBL1201862, “PubChem BioAssay data set” (2004).
“And” between values parts separate entries of the source, which are not always exact repeats. Equal values may be shown once.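 The compound was tested at five concentrations on cells cultured in 96-well plates, with a 48-hour exposure period. GI50: concentration for 50% inhibition of growth.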 The source made the active and inactive calls. Rule as the data show it: active = GI50 up to about 1.1 µM and inactive = higher.

Columns and labels:
Assay in all cases: NCI tumour cell line growth inhibition, 48 h
SF-295 = system: SF-295
OVCAR-4 = system: OVCAR-4
HOP-92 = system: HOP-92
HL-60 = system: HL-60
SNB-75 = system: SNB-75
COLO 205 = system: COLO 205
OVCAR-8 = system: OVCAR-8
NCI-H23 = system: NCI-H23
MCF7 = system: MCF7
NCI-H460 = system: NCI-H460
SW-620 = system: SW-620
SK-MEL-5 = system: SK-MEL-5
CAKI-1 = system: CAKI-1
UACC-62 = system: UACC-62
786-0 = system: 786-0
SK-MEL-28 = system: SK-MEL-28
IGROV-1 = system: IGROV-1
TK-10 = system: TK-10
Hs-578T = system: Hs-578T
BT-549 = system: BT-549

Row | Structure (SMILES) | GI50 (SF-295) | GI50 (OVCAR-4) | GI50 (HOP-92) | GI50 (HL-60) | GI50 (SNB-75) | GI50 (COLO 205) | GI50 (OVCAR-8) | GI50 (NCI-H23) | GI50 (MCF7) | GI50 (NCI-H460) | GI50 (SW-620) | GI50 (SK-MEL-5) | GI50 (CAKI-1) | GI50 (UACC-62) | GI50 (786-0) | GI50 (SK-MEL-28) | GI50 (IGROV-1) | GI50 (TK-10) | GI50 (Hs-578T) | GI50 (BT-549)
1 | CNC(=O)OCc1nc(SC(C)C)n(C)c1COC(=O)NC | > 100 µM (inactive) | > 100 µM (inactive) | > 100 µM (inactive) | 57 µM (inactive) | > 100 µM (inactive) | > 100 µM (inactive) | > 100 µM (inactive) | > 100 µM (inactive) | > 100 µM (inactive) | 72.8 µM (inactive) | > 100 µM (inactive) | > 100 µM (inactive) | > 72.3 µM (inactive) | > 100 µM (inactive) | > 100 µM (inactive) | > 100 µM (inactive) | > 100 µM (inactive) |  |  | 
2 | Cc1cn2c(/C=N/NC(=N)N)c(-c3ccc(Cl)c([N+](=O)[O-])c3)nc2s1 | 1.3 µM (inactive) | 1.55 µM (inactive) | 1.46 µM (inactive) | 0.116 µM (active) | 1.27 µM (inactive) | 0.661 µM (active) | 0.416 µM (active) | 1.43 µM (inactive) | 0.895 µM (active) | 1.42 µM (inactive) | 0.244 µM (active) | 1.56 µM (inactive) | 3.36 µM (inactive) | 1.78 µM (inactive) | 0.984 µM (active) | 1.71 µM (inactive) | 1.03 µM (active) | 1.68 µM (inactive) | 0.973 µM (active) | 
3 | Oc1ccc(-c2c3c(nc4c2CCc2ccc(Br)cc2-4)-c2cc(Br)ccc2CC3)cc1 | 16.2 µM (inactive) | 22.3 µM (inactive) | 16 µM (inactive) |  | 23.9 µM (inactive) | 17.2 µM (inactive) |  | 20.3 µM (inactive) | 16.8 µM (inactive) | 22.5 µM (inactive) |  | 20.7 µM (inactive) | 17.7 µM (inactive) | 21.3 µM (inactive) | 18.9 µM (inactive) | 20.6 µM (inactive) | 17 µM (inactive) | 21.1 µM (inactive) |  | 24 µM (inactive)
4 | Oc1ccccc1/C=N/N1C(=S)N(C23CC4CC(CC(C4)C2)C3)C(=N\c2ccccc2)/C1=N/c1ccccc1 | > 100 µM (inactive) |  | 29.7 µM (inactive) |  |  | 94.4 µM (inactive) | > 100 µM (inactive) | > 100 µM (inactive) |  | 71.8 µM (inactive) | > 100 µM (inactive) | 23.4 µM (inactive) | > 100 µM (inactive) | > 100 µM (inactive) | > 100 µM (inactive) | > 100 µM (inactive) | > 100 µM (inactive) | > 100 µM (inactive) | > 100 µM (inactive) | 38.9 µM (inactive)
5 | COc1ccc(-n2c(-c3ccccc3)cc(-c3cccs3)c2-c2cccs2)cc1 | > 100 µM (inactive) | 56.6 µM (inactive) | > 100 µM (inactive) |  | 88.9 µM (inactive) | > 100 µM (inactive) | > 100 µM (inactive) | 6.73 µM (inactive) | > 100 µM (inactive) | > 100 µM (inactive) | > 100 µM (inactive) | > 100 µM (inactive) | > 100 µM (inactive) | > 100 µM (inactive) | > 100 µM (inactive) | > 100 µM (inactive) | > 100 µM (inactive) | > 100 µM (inactive) | > 100 µM (inactive) | 
6 | S=C1/C(=N/c2ccccc2)N(C2CCCCC2)/C(=N\C2CCCCC2)N1c1ccccc1 | 36 µM (inactive) | > 100 µM (inactive) | > 100 µM (inactive) | > 100 µM (inactive) | > 100 µM (inactive) | 47.6 µM (inactive) | > 100 µM (inactive) | > 100 µM (inactive) |  | 38 µM (inactive) | > 100 µM (inactive) | > 100 µM (inactive) | > 100 µM (inactive) | 76.2 µM (inactive) | 75.7 µM (inactive) | > 100 µM (inactive) | 87.5 µM (inactive) | > 100 µM (inactive) | > 100 µM (inactive) | 
7 | COc1ccccc1NC(=O)C1=C(C)NC(C)=C(C(=O)Nc2ccccc2OC)C1c1ccccc1F | > 100 µM (inactive) | > 100 µM (inactive) | 79.3 µM (inactive) | 46.2 µM (inactive) | 18 µM (inactive) | > 100 µM (inactive) | > 100 µM (inactive) | > 100 µM (inactive) |  | 67.9 µM (inactive) | > 100 µM (inactive) | 41.6 µM (inactive) | > 100 µM (inactive) | 81.7 µM (inactive) | > 100 µM (inactive) | > 100 µM (inactive) | > 100 µM (inactive) | > 100 µM (inactive) |  | 
8 | COc1cc(/C=C\C(=O)O)ccc1OCc1ccccc1 | > 100 µM (inactive) |  | 20.3 µM (inactive) | > 100 µM (inactive) |  | > 100 µM (inactive) | > 100 µM (inactive) | > 100 µM (inactive) | > 100 µM (inactive) | > 100 µM (inactive) | > 100 µM (inactive) | > 100 µM (inactive) | > 100 µM (inactive) | > 100 µM (inactive) | > 100 µM (inactive) | > 100 µM (inactive) | > 100 µM (inactive) | > 100 µM (inactive) | 49.3 µM (inactive) | 
9 | NC(=O)Cn1c(=O)oc2cc(C(=O)CN3CCOCC3)ccc21 | > 100 µM (inactive) |  |  | > 100 µM (inactive) | 18.5 µM (inactive) | > 100 µM (inactive) | > 100 µM (inactive) |  | > 100 µM (inactive) |  | > 100 µM (inactive) | > 100 µM (inactive) | > 100 µM (inactive) |  | > 100 µM (inactive) | > 100 µM (inactive) | > 100 µM (inactive) |  | > 100 µM (inactive) | 
10 | OC(C/C=N/N=C/CC(O)(C(F)(F)Cl)C(F)(F)Cl)(C(F)(F)Cl)C(F)(F)Cl | > 10 µM (inactive) | > 10 µM (inactive) | 7.19 µM (inactive) | > 10 µM (inactive) | > 10 µM (inactive) | > 10 µM (inactive) | > 10 µM (inactive) | > 10 µM (inactive) | > 10 µM (inactive) | > 10 µM (inactive) | > 10 µM (inactive) | > 10 µM (inactive) | > 10 µM (inactive) | > 10 µM (inactive) | > 10 µM (inactive) | > 10 µM (inactive) | > 10 µM (inactive) | > 10 µM (inactive) | > 10 µM (inactive) | 
11 | O=C1C(=O)N(C23CC4CC(CC(C4)C2)C3)C(=S)N1c1ccccc1 | 97.5 µM (inactive) | > 100 µM (inactive) | 30 µM (inactive) | 42.8 µM (inactive) | > 100 µM (inactive) | > 100 µM (inactive) | 97.9 µM (inactive) | 49.1 µM (inactive) |  | 97.9 µM (inactive) | > 100 µM (inactive) | 61.2 µM (inactive) | > 100 µM (inactive) | > 100 µM (inactive) | > 100 µM (inactive) | > 100 µM (inactive) | > 100 µM (inactive) | 58.9 µM (inactive) | > 100 µM (inactive) | 
12 | C=C1c2nc3ccccc3n2C=C(c2ccc(OC)cc2)N1c1ccc(OC)cc1 | 11.7 µM (inactive) | 7.78 µM (inactive) | 15.6 µM (inactive) | > 100 µM (inactive) | 5.61 µM (inactive) | 83.4 µM (inactive) | 7.24 µM (inactive) | 21.1 µM (inactive) | 22 µM (inactive) | 13.8 µM (inactive) | 37.8 µM (inactive) | 7.45 µM (inactive) | 4.62 µM (inactive) | 16.1 µM (inactive) | 5.4 µM (inactive) |  | 10.6 µM (inactive) | 10.8 µM (inactive) |  | 22.1 µM (inactive)
13 | CC(=O)OC1CC2C(=O)CC1(C)C2(C)C (configuration not stated) | > 100 µM (inactive) | > 100 µM (inactive) | > 100 µM (inactive) | > 100 µM (inactive) | 67.9 µM (inactive) and > 83.6 µM (inactive) | > 100 µM (inactive) | > 100 µM (inactive) | > 100 µM (inactive) | > 100 µM (inactive) | > 100 µM (inactive) | > 83.8 µM (inactive) | > 100 µM (inactive) | > 100 µM (inactive) | > 100 µM (inactive) | > 100 µM (inactive) | > 100 µM (inactive) |  | > 100 µM (inactive) | > 100 µM (inactive) | 
14 | O=C1/C(=C/c2ccc(Cl)cc2)NC(=S)N1CN1CCOCC1 | > 100 µM (inactive) | > 100 µM (inactive) | > 100 µM (inactive) |  | > 100 µM (inactive) | > 100 µM (inactive) | > 100 µM (inactive) | > 100 µM (inactive) | > 100 µM (inactive) |  | > 100 µM (inactive) | > 100 µM (inactive) |  | > 100 µM (inactive) | > 100 µM (inactive) | > 100 µM (inactive) | > 100 µM (inactive) | > 100 µM (inactive) | > 100 µM (inactive) | 
15 | COc1cc(-c2nc3cc(F)ccc3s2)ccc1O | 43.7 µM (inactive) | 21.9 µM (inactive) |  | 41 µM (inactive) |  | 16.4 µM (inactive) | > 100 µM (inactive) | 42.2 µM (inactive) | 4.61 µM (inactive) | 70.5 µM (inactive) | > 100 µM (inactive) | 12.1 µM (inactive) | 28.2 µM (inactive) | 36.6 µM (inactive) | 37.1 µM (inactive) | 33.8 µM (inactive) | 10.9 µM (inactive) | 33.7 µM (inactive) |  | 20.6 µM (inactive)
16 | CC1(C)CC(O)CC(C)(C)N1O [TEMPOL HYDROXYLAMINE] | > 100 µM (inactive) |  |  |  | > 100 µM (inactive) | > 100 µM (inactive) | > 100 µM (inactive) |  | > 100 µM (inactive) | > 100 µM (inactive) | > 100 µM (inactive) | > 100 µM (inactive) | > 100 µM (inactive) | > 100 µM (inactive) | > 100 µM (inactive) | > 100 µM (inactive) | > 100 µM (inactive) | > 100 µM (inactive) |  | > 100 µM (inactive)
